This note sets out measurements from a melting point compilation (Tetko et al.; mined from patent text by program, amines drawn as free bases though some values may be those of a salt).

A word on the melting point: it is the temperature of the solid-liquid transition.

Where only a bound is given, the exact number is not on record here.

As to `C[Si](C)(C)C#Cc1cnn2c(C(F)(F)F)cc(-c3ccc(C(F)(F)F)cc3)nc12`, the melting point was found to be 136 °C.
Under `CC(=NC(C#N)=C(N)C#N)c1ccc(Cl)cc1` stands 154 to 156 °C; under `COc1ccc(CS[C@H]2C[C@@H](C(=O)O)N(C(=O)OCc3ccc([N+](=O)[O-])cc3)C2)cc1`, 96 to 98 °C; under `CCc1cc(O)cc(O)c1`, 97 to 98 °C.
Under `CC(C)[C@@H](CO)C[C@H](O)[C@H](CC1CCCCC1)NC(=O)OCc1ccccc1` stands 113 to 114 °C.
Under `N=c1nc(Nc2ccccc2)nc2[nH]c3ccccc3n12` stands over 300 °C; under `CC[C@H](NC(C)=O)c1nc2c(C(F)(F)F)cccc2c(O)c1C(=O)Nc1nccs1`, 275 °C; under `COc1cc(-c2ccc(F)cc2)nc(-c2ccccn2)n1`, 97 to 98 °C.
`Cc1cc(S(=O)(=O)N(C)CC(O)(CO)c2cccc(Cl)n2)ccc1Cl` (stereo not drawn) registered a melting point of 131 to 132 °C.
Under `COc1cc(O)ccc1CCCc1ccc(O)c(CC=C(C)C)c1` stands 85 to 86 °C; under `CN(C)c1ccc(NC(=O)N(Cc2ccccc2)C[C@H]2CC[C@H](CN(Cc3ccccc3)C(=O)Nc3ccc(N(C)C)cc3)CC2)cc1`, 142 to 144 °C; under `CCc1cc(Cl)cc2[nH]c(C(=O)O)cc(=O)c12`, 282 to 283 °C.
The same measure for `CCOC(=O)/C(=C/c1coc2cc(OC)ccc2c1=O)Cc1cc2c(cc1OC)OCO2`: 140 to 141 °C; for `CN(C)c1nnc(-c2ccc(S(C)=O)cc2)c(-c2ccc(S(C)=O)cc2)n1` (stereo not drawn): 199 to 204 °C; for `CC(C)n1c(=O)c2c(-c3cc(C4CC4)on3)ncn2c2ccccc21`: 247 to 249 °C.
The same measure for `Brc1cccc2c1SSSSS2`: 93 to 98 °C; for `Cc1ccc(C2CCN(C(=O)Nc3ccc4nc(CN5CCCC5)ccc4c3)CC2)cc1`: 214 to 216 °C; for `CCCCSCC(=O)c1ccc2[nH]c(=O)[nH]c2c1`: 211 to 213 °C.
The compound `Cc1cc(O)c2c(c1)C(C)(C)CCC2(C)C` returned a melting point of 133 to 134 °C.
Under `COC(=O)c1ccc(Cc2cn(C)c3ccc(CC(C)C(=O)O)cc23)c(OC)c1` (stereo not drawn) stands 149 to 151 °C; under `C[C@@H](Cc1ccc(OCC(=O)O)cc1)NS(=O)(=O)c1ccccc1`, 89 to 91 °C; under `CN(C)C(=O)C=CC(=O)N(C)C`, 130 to 131 °C.
Consider `CC(=O)Nc1nc(C)c(CCCl)s1`, for which the melting point lay in the range of 172 to 174 °C.
Under `O=C(O)COc1cc2c(=O)cc(C(=O)O)[nH]c2ccc1=O` stands over 270 °C; under `COC(=O)c1ccc(OCCNC(=O)C2Cc3ccccc3N2S(=O)(=O)c2ccc(-c3cc(C(F)(F)F)ccc3Cl)cc2)cc1Cl` (stereo not drawn), 70 to 76 °C.
Under `Cc1nc2c(N)nc3ccccc3c2n1CCOCCN` stands 155 to 157 °C; under `Cc1cc(C2=NOC(c3cc(C(F)(F)F)cc(C(F)(F)F)c3)(C(F)(F)F)C2)ccc1Br` (stereo not drawn), 108 to 110 °C; under `CC(N)CNC(=O)Nc1ccccc1` (stereo not drawn), 118 to 120 °C.
The same measure for `Nc1ncnc2c1c(-c1ccc(Oc3ccccc3)cc1)cn2C1CCC(=O)CC1`: 252 to 254 °C.
On to `CCCc1nn(C)c2c(NCc3ccc4c(c3)OCO4)nc(-c3ccc(C(=O)O)cc3)nc12`, for which the melting point stood at 114 °C.
`CN(O)C(=O)Nc1cc(Cl)cc(Cl)c1` gave a melting point of 131 to 132 °C.
`CCCCOc1c(CNC(=O)OC(C)(C)C)n(CC(C)C)c(=O)c2ccc(-c3nc(C)c(C(=O)OCC)s3)cc12`: the melting point is 146 to 147 °C.
On to `O=Cc1ccc(OC2CCCC2)c2oc3ccc([N+](=O)[O-])cc3c12`, for which the melting point lay in the range of 230 to 240 °C.
The same measure for `COCCc1nc2c(N)nc3ccccc3c2n1CCCCNC(=O)c1ccc(-n2cccc2)cc1`: 173 to 175 °C.
Compound `Cc1cc(C)cc(NCc2ccc3nc(NCCCN4CC(C)OC(C)C4)n(Cc4nc(C)ccc4O)c3c2)c1` (stereo not drawn) yielded a melting point of 192 °C.
The same measure for `CC(=O)c1c(CBr)n(S(=O)(=O)c2ccccc2)c2ccc(Cl)cc12`: 155 °C.
The same measure for `O=C(N[C@H]1CCN(CCc2ccc(F)cc2)C1)n1c2ccccc2c2ccccc21`: 107 to 108 °C.
The same measure for `NC(=O)c1nnn(Cc2ccccc2)c1NC(=O)c1ccccc1`: 191 to 192 °C; for `O=S1(=O)N=C(NCCc2ccccc2)Nc2ccc(Cl)cc21`: 250 to 252 °C.
`O=C1CCC(CCN2CC=C(c3ccccc3)CC2)CC1` registered a melting point of 94 to 96 °C.
The same measure for `COCc1ccoc1-c1cccc(-n2c(N)nc3ccccc32)c1`: 134 to 136 °C.
Under `Cc1cc(C)cc(N2CCN(Cc3ncn(C(c4ccccc4)(c4ccccc4)c4ccccc4)c3C)C2=O)c1` stands 199 to 202 °C; under `Nc1ccccc1C(=O)c1ccc(OCc2ccccc2)cc1`, 99 to 101 °C; under `Cc1cc(C)cc(S(=O)c2cccc(F)c2C#N)c1` (stereo not drawn), 146 to 147 °C.
Under `COc1ccc(NC(=O)CN2CC(C)N(C(c3ccc(F)cc3)c3ccc(F)cc3)CC2C)cc1` (stereo not drawn) stands 131 °C; under `CCCN(CCC)c1c([N+](=O)[O-])cc(C(C)=O)cc1[N+](=O)[O-]`, 71 to 72 °C.
For the compound `COc1ccccc1NC(=O)c1ccc(CO)cc1`, the melting point lay in the range of 104 to 106 °C.
`C=CCN1CCc2ccc(C(=O)CCC(=O)N3CCC(c4ccc(Cl)cc4)CC3)cc2CC1` came in with a melting point of 136 to 137 °C.
The compound `COc1ccc(CNc2c(C)c(C)c3c(c2C)C(c2ccc(F)cc2)C(C)(C)O3)cc1` (stereo not drawn) registered a melting point of 114 to 115 °C.
`CC(=O)c1ccccc1-c1noc2ccccc12` returned a melting point of 108 °C.
The same measure for `Nc1ccc(Cn2cnc3c(-c4ccco4)ncnc32)cc1`: 195 to 197 °C; for `Cc1cccc(NC(=O)NC2CC(c3ccccc3)c3ccccc3N(CC(=O)NC(C)(C)C)C2=O)c1` (stereo not drawn): 263 to 266 °C; for `Cc1ccc(S(=O)(=O)OCCC2COc3cc(Cl)c(Cl)cc3O2)cc1` (stereo not drawn): 135 to 138 °C.
As to `N#Cc1cnn(-c2c(Cl)cc(C(F)(F)F)cc2Cl)n1`, the melting point was 51 to 53 °C.
The same measure for `O=C(O)c1cccc2[nH]cc(Cc3ccc(OCc4ccc5ccccc5n4)cc3)c12`: 209 to 211 °C; for `Cc1cc(Oc2c(Cl)cc(C(F)(F)F)cc2Cl)nn1C(=O)NOCc1ccccc1`: 98 to 100 °C.
The same measure for `O=C(O)COc1cc2c(-c3ccc(Cl)cc3)csc2c(Cl)c1Cl`: 206 to 208 °C; for `CCN(C)C(=O)c1cnn(C)c1C(=O)Nc1ccn2nc(N3CCOCC3)nc2c1`: 201 to 203 °C; for `CC1(CC(=O)O)CCCCC1=O` (stereo not drawn): 87 to 90 °C.
Under `O=C(c1ccccc1)c1ccc(N2CCC(N3Cc4ccccc4C3=O)CC2)cc1` stands 173 to 175 °C; under `CCOC(=O)C(C)Sc1nc(-c2cc(C(C)(C)C)c(O)c(C(C)(C)C)c2)c[nH]1` (stereo not drawn), 80 to 82 °C; under `CC(C)c1ccc2c(c1)C(=O)c1ccc(-c3nnn(C)n3)cc1S2(=O)=O`, 219 to 221 °C.
`c1ccc(-c2nc3ccc(Cn4ccnc4)cc3nc2-c2ccccc2)cc1` returned a melting point of 159 °C.
The same measure for `COc1cc2c(cc1[N+](=O)[O-])N(CC(=O)N(C)C)C(=O)CN(CC(=O)N(C)C)C2`: 98 °C.
The same measure for `CC1COc2c(ccc(F)c2F)N1C(=O)C=NO` (stereo not drawn): 188 to 190 °C.
Consider `Cc1cc(F)ccc1-c1nc(OCCO)nc2c1CNC(=O)N2c1c(F)cccc1F`, for which the melting point was 172 to 175 °C.
Under `O=C(O)CCCc1ccc(C(Cc2ccccc2)NS(=O)(=O)c2ccc(Cl)cc2)cc1` (stereo not drawn) stands 152 to 153 °C.
Turning to `COc1cc2c(cc1OC)CNCC2`, the melting point lay in the range of 139 to 141 °C.
The same measure for `O=[N+]([O-])c1ccc(Oc2ccccc2)c(Cl)c1Oc1ccccc1`: 106 to 107 °C.
The compound `BrCCCCCCCCCCCCN1CCN(c2ccccc2)CC1` gave a melting point of 26 to 28 °C.
`CCOC(=O)C1(CCCN)CCCCC1(O)c1ccccc1` (stereo not drawn) had a melting point of 130 to 133 °C.
Under `COc1ccc(Oc2ccn3nc(-c4ccccc4)c(-c4ccc(=O)n(C(C)C)n4)c3c2)nc1` stands 148 to 150 °C; under `COC(C(N)=O)C(=O)O` (stereo not drawn), 128 to 130 °C; under `CC(C)(Sc1ccc2c(-c3ccccc3F)noc2c1Cl)C(=O)O`, 149 °C.
Under `NS(=O)(=O)c1ccc(CCCNCC(O)c2ccccc2)cc1` (stereo not drawn) stands 165 to 166 °C; under `CC(C)(C)OC(=O)NCCSc1cccc2nccn12`, 105 to 107 °C; under `OC(c1ccccc1)c1cc2cc(Br)ccc2o1` (stereo not drawn), 56 to 58 °C.
Under `COc1cc2c(cc1OC)CN(CCCc1ccc(NC(=O)c3cccc4c(=O)c5cccc(OC)c5[nH]c34)cc1)CC2` stands 135 °C; under `Cc1ccc2c(c1)C(=O)CC2c1ccc(F)cc1` (stereo not drawn), 68 to 70 °C.
For `CC(=O)OC1CSC(Oc2ccc(-c3cccnc3)nc2)C(OC(C)=O)C1OC(C)=O` (stereo not drawn), the melting point is 196 °C.
The same measure for `Cc1[nH]c(=O)[nH]c1C(=O)c1ccncc1`: 295 to 296 °C; for `CCOC(=O)C(C)(C)Oc1ccc(CCNC(=O)C(C)(C)Oc2cccc(OC)c2)cc1`: 68 to 69 °C; for `Cn1cc(C(=O)NCc2ccc(Cl)cc2)c(=O)c2cc(C#CCO)cc(F)c21`: 186 to 188 °C.
Under `C[C@@H]1Cc2ccccc2O[C@H]1c1ccccc1` (relative stereo) stands 77 to 78 °C; under `O=C1c2ccccc2C(=O)N1OCCCN1CCN(c2cccc(Cl)c2)CC1`, 140 to 142 °C.
In turn, `O=C(O)C(Cc1ccccc1)Nc1ncnc(-c2ccc(OCc3ccccc3)cc2)c1CO` (stereo not drawn) showed a melting point of 114 to 117 °C.
Under `OCCCCCCCCCCCCCCCCCCCCO` stands 93 °C; under `CCOC(=O)CCc1cc(OC)ccc1C(=O)CCCNC(C)=O`, 59 to 61 °C.
